Counter-ions that a name gives are not always drawn.
Assays:
[1] = target: T1, Recombinant human integrin αVβ5 (Homo sapiens, UniProt P06756+P18084); experiment: Solid Phase Receptor Assay (SPRA) for αVβ5 function; format: binding; settings: plate-bound human vitronectin
T1 construct: purchased R&D Systems 2528-AV
Protocol: D. Solid Phase Receptor Assay (SPRA) for αVβ5 Function
(§1) Wells were washed 3 times with 150 μL TBS+ and then 150 μL of blocking buffer (TBS+ with 1% bovine serum albumin, Sigma A7906) was added. The plate was incubated for 1 hr at 37° C. and then washed 3× with TBS+ buffer. […] Compounds were diluted to 20 μM and then 1 μL was added to each well of the plate according to a standard template with each sample repeated in triplicate. After incubation for two hours at room temperature, the plate was washed 3× with 150 μL of TBS+ buffer. To each well, 50 μl of biotinylated anti-αV antibody (R&D Systems, BAF1219) at 0.5 μg/mL in TBS+/0.1% BSA at 0.5 μg/mL were added and the plate covered and incubated for 1 hr at room temperature. After washing the plate 3× with 150 μL of TBS+ buffer, 50 μL of streptavidin-conjugated horseradish peroxidase (R&D Systems, DY998) diluted in TBS+ blocking buffer were added to the wells and the plate incubated for 20 min at room temperature. The plate was washed 3× with TBS+ buffer followed by 50 μL of TMB substrate (Sigma T4444) added to each well in the dark and the plate incubated for 5 min at room temperature. 25 μL of 1.0 M phosphoric acid was added as a stop solution and the plates were read at 450 nm using a Spectramax plate reader.

[2] = target: T2, Recombinant human integrin αVβ6 (Homo sapiens, UniProt P06756+P18564); experiment: Solid Phase Receptor Assay (SPRA) for αVβ6 function; format: binding; settings: plate-bound human LAP
T2 construct: purchased R&D Systems 3817-AV
Protocol: E. Solid Phase Receptor Assay (SPRA) for αVβ6 Function
as §1, with “150 μL TBS+, and then” for “150 μL TBS+ and then”, “at 37° C., and then” for “at 37° C. and then”, “well, 50 μL of biotinylated” for “well, 50 μl of biotinylated”, “TBS+/0.1% BSA were added” for “TBS+/0.1% BSA at 0.5 μg/mL were added”, “the plate was covered and” for “the plate covered and”, “incubated for 10 min at” for “incubated for 5 min at”

T1 sequence (P06756 31-992 limits assumed): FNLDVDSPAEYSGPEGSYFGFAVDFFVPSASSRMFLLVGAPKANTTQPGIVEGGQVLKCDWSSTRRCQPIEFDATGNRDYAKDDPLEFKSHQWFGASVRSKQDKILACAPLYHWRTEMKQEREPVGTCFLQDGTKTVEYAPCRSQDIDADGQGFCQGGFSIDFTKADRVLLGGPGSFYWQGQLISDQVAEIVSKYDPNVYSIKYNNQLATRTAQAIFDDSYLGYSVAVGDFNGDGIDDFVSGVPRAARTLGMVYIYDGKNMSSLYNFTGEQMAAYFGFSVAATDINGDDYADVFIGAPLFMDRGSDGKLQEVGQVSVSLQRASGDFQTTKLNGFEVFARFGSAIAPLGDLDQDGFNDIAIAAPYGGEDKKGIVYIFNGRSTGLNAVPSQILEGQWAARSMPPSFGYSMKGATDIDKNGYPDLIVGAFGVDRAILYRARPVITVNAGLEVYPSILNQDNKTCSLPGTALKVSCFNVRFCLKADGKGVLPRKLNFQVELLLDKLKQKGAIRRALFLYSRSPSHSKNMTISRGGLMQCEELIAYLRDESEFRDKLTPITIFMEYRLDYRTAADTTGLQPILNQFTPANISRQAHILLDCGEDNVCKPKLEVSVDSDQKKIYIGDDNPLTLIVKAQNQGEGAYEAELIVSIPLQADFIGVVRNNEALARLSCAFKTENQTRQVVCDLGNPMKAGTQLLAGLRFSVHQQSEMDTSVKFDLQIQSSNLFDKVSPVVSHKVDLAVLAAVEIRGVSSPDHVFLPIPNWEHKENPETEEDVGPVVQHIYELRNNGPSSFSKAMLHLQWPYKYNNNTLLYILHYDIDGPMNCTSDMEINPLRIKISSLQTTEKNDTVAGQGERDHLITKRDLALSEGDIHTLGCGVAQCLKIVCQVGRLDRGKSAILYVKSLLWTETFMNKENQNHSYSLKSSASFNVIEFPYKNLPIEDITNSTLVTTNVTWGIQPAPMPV
T1 sequence (P18084 24-719 limits assumed): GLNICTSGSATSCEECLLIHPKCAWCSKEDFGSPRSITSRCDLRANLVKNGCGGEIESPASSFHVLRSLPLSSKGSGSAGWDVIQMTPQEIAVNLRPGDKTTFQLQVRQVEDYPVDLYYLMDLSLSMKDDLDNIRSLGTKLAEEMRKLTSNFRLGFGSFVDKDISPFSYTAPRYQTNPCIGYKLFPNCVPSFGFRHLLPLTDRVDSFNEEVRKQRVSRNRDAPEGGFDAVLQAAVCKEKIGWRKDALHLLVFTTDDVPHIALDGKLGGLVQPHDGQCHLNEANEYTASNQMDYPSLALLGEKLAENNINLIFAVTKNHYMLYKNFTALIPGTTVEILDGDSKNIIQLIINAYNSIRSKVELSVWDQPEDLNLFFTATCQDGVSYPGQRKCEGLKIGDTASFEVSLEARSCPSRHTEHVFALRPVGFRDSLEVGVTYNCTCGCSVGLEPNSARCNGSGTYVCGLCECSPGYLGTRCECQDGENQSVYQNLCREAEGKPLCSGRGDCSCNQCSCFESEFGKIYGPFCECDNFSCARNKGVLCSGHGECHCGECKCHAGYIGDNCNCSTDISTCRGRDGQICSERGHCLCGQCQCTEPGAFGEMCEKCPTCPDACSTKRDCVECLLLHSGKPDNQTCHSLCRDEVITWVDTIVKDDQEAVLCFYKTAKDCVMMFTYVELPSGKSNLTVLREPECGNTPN
T2 sequence (P06756 31-992 limits assumed): as the sequence (P06756 31-992 limits assumed) above
T2 sequence (P18564 22-707 limits assumed): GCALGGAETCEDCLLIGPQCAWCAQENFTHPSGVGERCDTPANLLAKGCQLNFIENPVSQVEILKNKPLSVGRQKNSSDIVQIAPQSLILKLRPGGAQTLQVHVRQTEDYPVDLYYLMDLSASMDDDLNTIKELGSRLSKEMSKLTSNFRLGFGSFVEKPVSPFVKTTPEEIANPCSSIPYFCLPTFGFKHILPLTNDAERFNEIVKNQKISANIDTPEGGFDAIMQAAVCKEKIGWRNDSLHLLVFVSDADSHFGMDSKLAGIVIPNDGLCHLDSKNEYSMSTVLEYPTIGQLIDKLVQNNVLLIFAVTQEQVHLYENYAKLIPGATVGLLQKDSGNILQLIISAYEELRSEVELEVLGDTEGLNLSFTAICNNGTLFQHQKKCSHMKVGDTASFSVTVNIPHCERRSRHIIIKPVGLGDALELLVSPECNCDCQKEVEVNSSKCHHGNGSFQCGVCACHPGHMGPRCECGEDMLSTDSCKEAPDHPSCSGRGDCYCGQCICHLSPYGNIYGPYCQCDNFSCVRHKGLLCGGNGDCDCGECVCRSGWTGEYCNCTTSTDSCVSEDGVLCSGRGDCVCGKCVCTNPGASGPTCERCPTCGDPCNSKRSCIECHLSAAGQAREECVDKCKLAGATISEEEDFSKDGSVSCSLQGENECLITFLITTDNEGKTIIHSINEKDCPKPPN

SMILES	IC50 [1]	IC50 [2]
COc1ccc(C2=CCOCC2)cc1C(CC(=O)O)Cc1csc(CCCc2ccc3c(n2)NCCC3)n1 (stereo not shown) [Example 37, 3-[5-(3,6-dihydro-2H-pyran-4-yl)-2-methoxy-phenyl]-4-[2-[3-(5,6,7,8-tetrahydro-1,8-naphthyridin-2-yl)propyl]thiazol-4-yl]butanoic acid]	37 nM	81 nM
COc1ccc(C(C)(C)C)cc1C(CC(=O)O)Cc1csc(CCCc2ccc3c(n2)NCCC3)n1 (stereo not shown) [Example 28, 3-(5-(tert-butyl)-2-methoxyphenyl)-4-(2-(3-(5,6,7,8-tetrahydro-1,8-naphthyridin-2-yl)propyl)thiazol-4-yl)butanoic acid]	440 nM	310 nM
COc1ccc(C2=CCOCC2)cc1C(CC(=O)O)Cc1cc(OCCc2ccc3c(n2)NCCC3)n(C)n1 (stereo not shown) [Example 42]	14 nM	17 nM
COc1ccc(C2=CCOCC2)cc1[C@H](CC(=O)O)Cc1csc(CCCc2ccc3c(n2)NCCC3)n1 [Example 37A, (S)-3-(5-(3,6-dihydro-2H-pyran-4-yl)-2-methoxyphenyl)-4-(2-(3-(5,6,7,8-tetrahydro-1,8-naphthyridin-2-yl)propyl)thiazol-4-yl)butanoic acid trifluoroacetate]	31 nM	31 nM
COCC1(c2ccc(OC)c([C@H](CC(=O)O)Cc3cc(OCCc4ccc5c(n4)NCCC5)n(C)n3)c2)CCOCC1 [Example 48, (S)-3-(2-methoxy-5-(4-(methoxymethyl)tetrahydro-2H-pyran-4-yl)phenyl)-4-(1-methyl-5-(2-(5,6,7,8-tetrahydro-1,8-naphthyridin-2-yl)ethoxy)-1H-pyrazol-3-yl)butanoic acid]	770 nM	2800 nM

Reference: patent US20210284638A1 (Saint Louis University, priority 2018, published 2021)
